# Laboratory results: patent US8217035B2, “Pyrimidine derivatives used as PI-3-kinase inhibitors” (Novartis AG, priority 2006, dated 2012)
# Like-named read-outs stand apart in the source and are kept apart here.
# Legend:
# [1] = test system: A2780 ovarian cancer cells; experiment: Cellular proliferation in A2780 cells, Cell Titer Glo (Biological Method 4); type: cell-based; conditions: Homo sapiens
# Experimental: In addition, many of the compounds of Table 1 were tested to determine their inhibitory activity in a cellular proliferation assay according to Biological Method 4.
# The ability of the compounds of the invention to inhibit cellular proliferation were determined by using Cell Titer Glo, a commercially available assay from Promega Corporation. A2780 ovarian cancer cells were seeded in TC treated 96-well plates at a density of 1,000 per well in DMEM, 10% FBS, 1% Sodium Pyruvate, and 1% Penicillin Streptomycin for a minimum of 2 hrs prior to addition of compound. For each concentration of test compound, 2 μl (500×) aliquots of compound or 100% DMSO diluted in 500 μl of culture medium for 2× concentration then diluted 1× on the Cells. Cells were incubated for 72 hrs at 37° C., 5% CO2. After the 72 hour incubation, Cell Titer Glo reagent is added to determine number of viable cells remaining after exposure to the compound, and the EC50 value was calculated. The assay was performed according to the manufacturer's instruction (Promega Corporation, Madison, Wis. USA). Each experimental condition was performed in duplicate.
# PI3 kinase alpha = PI3 kinase alpha (Homo sapiens, UniProt P42336); experiment: PI3K ATP depletion assay (Biological Method 1, Assay 3; KinaseGlo luminescence); type: biochemical; conditions: ATP depletion assay, read-out: PI3 Kinase Alpha, IC50
# How it was run: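 Compound in DMSO was mixed with 10 nM PI3 kinase and 5 μg/mL phosphatidylinositol, and the reaction was started with 2 μM ATP. It ran to about 50% ATP depletion and was stopped with KinaseGlo.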
# [2] = ovarian cancer cell line A2780, Biological Method 4
# Chain of PI3 kinase alpha (P42336 whole entry): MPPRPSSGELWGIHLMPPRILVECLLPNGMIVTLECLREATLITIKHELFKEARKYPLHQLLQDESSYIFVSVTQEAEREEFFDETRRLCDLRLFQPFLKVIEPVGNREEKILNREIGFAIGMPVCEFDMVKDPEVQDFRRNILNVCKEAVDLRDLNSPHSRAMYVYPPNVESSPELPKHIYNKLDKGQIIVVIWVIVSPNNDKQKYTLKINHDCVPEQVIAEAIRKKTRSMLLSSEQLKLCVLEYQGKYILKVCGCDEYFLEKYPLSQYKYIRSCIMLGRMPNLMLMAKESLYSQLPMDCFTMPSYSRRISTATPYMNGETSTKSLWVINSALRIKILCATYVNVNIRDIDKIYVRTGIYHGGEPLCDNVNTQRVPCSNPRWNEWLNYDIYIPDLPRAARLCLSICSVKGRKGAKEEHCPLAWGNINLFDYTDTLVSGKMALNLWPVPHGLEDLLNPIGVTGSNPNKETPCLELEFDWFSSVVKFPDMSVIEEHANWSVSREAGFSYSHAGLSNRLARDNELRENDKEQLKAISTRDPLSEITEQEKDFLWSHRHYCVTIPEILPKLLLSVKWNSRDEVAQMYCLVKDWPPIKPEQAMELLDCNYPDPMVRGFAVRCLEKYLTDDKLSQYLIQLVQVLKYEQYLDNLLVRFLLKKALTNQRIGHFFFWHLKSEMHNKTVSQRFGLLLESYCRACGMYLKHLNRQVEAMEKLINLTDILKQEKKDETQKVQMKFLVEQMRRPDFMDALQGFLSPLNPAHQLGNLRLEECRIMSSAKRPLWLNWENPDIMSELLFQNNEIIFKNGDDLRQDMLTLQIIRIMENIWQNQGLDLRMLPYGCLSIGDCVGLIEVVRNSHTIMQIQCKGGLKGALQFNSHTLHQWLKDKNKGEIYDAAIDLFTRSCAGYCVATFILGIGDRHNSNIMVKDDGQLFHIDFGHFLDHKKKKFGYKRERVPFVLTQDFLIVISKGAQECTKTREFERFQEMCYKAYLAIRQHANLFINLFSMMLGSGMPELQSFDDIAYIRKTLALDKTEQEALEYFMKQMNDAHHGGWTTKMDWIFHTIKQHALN
# Chain of PI3 kinase alpha (P27986 whole entry partner): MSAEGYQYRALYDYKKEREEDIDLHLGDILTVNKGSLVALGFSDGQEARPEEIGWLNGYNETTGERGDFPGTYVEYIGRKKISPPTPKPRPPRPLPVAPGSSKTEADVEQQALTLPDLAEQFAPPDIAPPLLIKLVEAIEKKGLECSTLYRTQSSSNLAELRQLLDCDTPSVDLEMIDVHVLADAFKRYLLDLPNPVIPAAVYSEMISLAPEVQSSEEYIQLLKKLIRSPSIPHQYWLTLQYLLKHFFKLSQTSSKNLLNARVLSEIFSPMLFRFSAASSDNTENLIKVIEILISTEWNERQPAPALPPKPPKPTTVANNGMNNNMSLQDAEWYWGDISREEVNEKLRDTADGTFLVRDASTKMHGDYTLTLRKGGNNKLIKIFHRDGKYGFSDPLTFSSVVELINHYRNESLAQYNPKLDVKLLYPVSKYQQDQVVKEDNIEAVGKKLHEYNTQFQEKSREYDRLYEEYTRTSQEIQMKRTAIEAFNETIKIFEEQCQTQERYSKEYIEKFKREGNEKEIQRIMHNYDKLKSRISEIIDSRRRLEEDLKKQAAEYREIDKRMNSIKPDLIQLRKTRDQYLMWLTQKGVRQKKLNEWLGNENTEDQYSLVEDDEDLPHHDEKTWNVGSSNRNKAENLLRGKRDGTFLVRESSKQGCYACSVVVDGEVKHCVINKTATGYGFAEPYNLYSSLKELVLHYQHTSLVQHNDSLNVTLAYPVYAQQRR
Compound,EC50 ([1]; ovarian cancer cell line A2780) [µM],IC50 (PI3 kinase alpha) [nM],"EC50 [1, 2] [µM]",IC50 (PI3 kinase alpha; Biological Method 1) [nM]
Nc1cc(C(F)(F)F)c(-c2cc(N3CCCCC3=O)nc(N3CCOCC3)n2)cn1 [Compound 17],< 1,< 1000,,
N#Cc1cc(N)ncc1-c1cc(N2CCOC(c3ccccc3)C2)nc(N2CCOCC2)n1 (centres unmarked) [Compound 341],,,< 10,< 1000
NC(=O)c1ccccc1-c1cc(-c2ccc(N)nc2)nc(N2CCOCC2)n1 [Compound 254],,,< 25,< 1000
Nc1ccc(-c2cc(Nc3ccc(N4CCNCC4)nc3)nc(N3CCOCC3)n2)cn1 [Compound 299],,,< 10,< 1000
CC(=O)N1CCC(Oc2ccc(Nc3cc(-c4cnc(N)cc4C(F)(F)F)nc(N4CCOCC4)n3)cn2)CC1 [Compound 262],,,< 10,< 1000
COc1ccccc1Nc1cc(-c2cnc(N)nc2)nc(N2CCOCC2)n1 [Compound 306],,,< 10,< 1000
CC(C)(C)Nc1cc(-c2cnc(N)nc2)nc(N2CCOCC2)n1 [Compound 16],< 1,< 1000,,
Nc1ncc(-c2cc(Nc3nccc(C(F)(F)F)n3)nc(N3CCOCC3)n2)c(C(F)(F)F)n1 [Compound 216],,,< 10,< 1000
Nc1ncc(-c2cc(N[C@@H]3CN4CCC3CC4)nc(N3CCOCC3)n2)cn1 [Compound 520],< 10,< 1000,,
CN1CCN(S(=O)(=O)c2cccc(Nc3cc(-c4cnc(N)cc4C(F)(F)F)nc(N4CCOCC4)n3)c2)CC1 [Compound 315],,,< 10,< 1000
Nc1cc(C(F)(F)F)c(-c2cc(Nc3cccc(S(=O)(=O)N4CCOCC4)c3)nc(N3CCOCC3)n2)cn1 [Compound 316],,,< 10,< 1000
Nc1cc(C(F)(F)F)c(-c2cc(Nc3ccc(OC4CCOC4)nc3)nc(N3CCOCC3)n2)cn1 (centres unmarked) [Compound 268],,,< 10,< 1000
COc1cncc(-c2cc(-c3ccc(N)nc3)nc(N3CCOCC3)n2)c1 [Compound 275],,,< 1,< 1000
N#Cc1ccnc(Nc2cc(-c3cnc(N)cc3C(F)(F)F)nc(N3CCOCC3)n2)c1 [Compound 239],,,< 10,< 1000
Nc1ncc(-c2cc(Nc3cnccc3C(F)(F)F)nc(N3CCOCC3)n2)cn1 [Compound 390],,,< 10,< 1000
NC(=O)c1ccccc1Nc1cc(-c2ccc(N)nc2)nc(N2CCOCC2)n1 [Compound 352],,,< 10,< 1000
CC(=O)Nc1ccc(Nc2cc(-c3ccc(N)nc3)nc(N3CCOCC3)n2)cc1 [Compound 360],,,< 10,< 1000
CC(C)(C)OC(=O)N1CCC[C@H](Oc2cc(-c3cnc(N)cc3C(F)(F)F)nc(N3CCOCC3)n2)C1 [Compound 20],< 1,< 1000,,
Nc1ccc(-c2cc(Nc3ccnc4cc(C(F)(F)F)ccc34)nc(N3CCOCC3)n2)cn1 [Compound 380],,,< 10,< 1000
Nc1ccc(-c2cc(-c3cn[nH]c3)nc(N3CCOCC3)n2)cn1 [Compound 248],,,< 10,< 1000
Nc1ccc(-c2cc(Nc3cccc(S(N)(=O)=O)c3)nc(N3CCOCC3)n2)cn1 [Compound 362],,,< 10,< 1000
Nc1cc(C(F)(F)F)c(-c2cc(N3CCOC(C(=O)O)C3)nc(N3CCOCC3)n2)cn1 (centres unmarked) [Compound 333],,,< 25,< 1000
CC(=O)Nc1ccccc1-c1cc(-c2ccc(N)nc2)nc(N2CCOCC2)n1 [Compound 253],,,< 10,< 1000
CC(=O)c1cccc(-c2cc(-c3ccc(N)nc3)nc(N3CCOCC3)n2)c1 [Compound 252],,,< 10,< 1000
Nc1cc(C(F)(F)F)c(-c2cc(N3CCOC(c4ccccc4Cl)C3)nc(N3CCOCC3)n2)cn1 (centres unmarked) [Compound 337],,,< 25,< 1000
CNC(=O)c1cc(-c2cnc(N)nc2)nc(N2CCOCC2)n1 [Compound 232],,,< 25,< 1000
Nc1ncc(-c2cc(N3CCCC3)nc(N3CCOCC3)n2)cn1 [Compound 399],< 10,< 1000,,

# Continued, values first:
EC50 ([1]; ovarian cancer cell line A2780) [µM],IC50 (PI3 kinase alpha) [nM],"EC50 [1, 2] [µM]",IC50 (PI3 kinase alpha; Biological Method 1) [nM],Compound
< 10,< 1000,,,Nc1ncc(-c2cc(Nc3ccc4c(c3)NC(=O)CO4)nc(N3CCOCC3)n2)cn1 [Compound 413]
< 10,< 1000,,,Nc1ncc(-c2ccnc(N3CCOCC3)n2)c(=O)[nH]1 [Compound 462]
< 10,< 1000,,,CN(c1cc(-c2cnc(N)nc2)nc(N2CCOCC2)n1)C1CCCCC1 [Compound 404]
< 10,< 1000,,,Nc1ncc(-c2cc(OCCCN3CCOCC3)nc(N3CCOCC3)n2)cn1 [Compound 511]
< 10,< 1000,,,CN(C)c1cc(-c2cnc(N)nc2)nc(N2CCOCC2)n1 [Compound 400]
< 25,< 1000,,,CC(C)(C)NS(=O)(=O)c1ccccc1-c1cc(-c2cnc(N)cc2C(F)(F)F)nc(N2CCOCC2)n1 [Compound 544]
< 10,< 1000,,,CS(=O)(=O)N1CC[C@@H](Oc2cc(-c3cnc(N)cc3C(F)(F)F)nc(N3CCOCC3)n2)C1 [Compound 540]
< 10,< 1000,,,Cc1c(-c2ccc(S(C)(=O)=O)cc2)nc(N2CCOCC2)nc1-c1cnc(N)nc1 [Compound 549]
< 10,< 1000,,,N#Cc1ccccc1Nc1cc(-c2cnc(N)nc2)nc(N2CCOCC2)n1 [Compound 449]
< 10,< 1000,,,Nc1ncc(-c2cc(O[C@H]3CCOC3)nc(N3CCOCC3)n2)c(C(F)(F)F)n1 [Compound 530]
< 25,< 1000,,,Nc1cc(C(F)(F)F)c(-c2cc(Cl)nc(N3CCOCC3)n2)cn1 [Compound 467]
< 25,< 1000,,,N#Cc1cc(N)ncc1-c1cc(-c2cccnc2F)nc(N2CCOCC2)n1 [Compound 417]
< 10,< 1000,,,COc1ccc(Nc2nc(N3CCOCC3)nc(-c3cnc(N)nc3)c2C)cn1 [Compound 480]
< 10,< 1000,,,CC(=O)N1CCC[C@H](Oc2cc(-c3cnc(N)cc3C(F)(F)F)nc(N3CCOCC3)n2)C1 [Compound 455]
< 25,< 1000,,,Cc1c(Cl)nc(N2CCOCC2)nc1-c1cnc(N)nc1 [Compound 483]
< 10,< 1000,,,Nc1ccc(-c2cc(Oc3cccnc3)nc(N3CCOCC3)n2)cn1 [Compound 512]
< 10,< 1000,,,COc1cncc(-c2nc(N3CCOCC3)nc(-c3cnc(N)nc3)c2C)c1 [Compound 475]
< 10,< 1000,,,Nc1ncc(-c2cc(Nc3ccc4[nH]ncc4c3)nc(N3CCOCC3)n2)cn1 [Compound 522]
< 10,< 1000,,,CC(C)OC(=O)N1CCC(Oc2cc(-c3cnc(N)cc3C(F)(F)F)nc(N3CCOCC3)n2)CC1 [Compound 460]
< 10,< 1000,,,Nc1ccc(-c2cc(Nc3ccccc3F)nc(N3CCOCC3)n2)cn1 [Compound 440]
< 10,< 1000,,,CN1CCC(Nc2ccc(Nc3cc(-c4ccc(N)nc4)nc(N4CCOCC4)n3)cn2)CC1 [Compound 501]
< 25,< 10000,,,Nc1ncc(-c2nc(N3CCOCC3)ncc2C(=O)N2CCNC(=O)C2)cn1 [Compound 427]
< 10,< 1000,,,COc1ccc(Nc2cc(-c3ccc(N)nc3)nc(N3CCOCC3)n2)cc1 [Compound 442]
< 10,< 1000,,,Cc1cc(Nc2cc(-c3cnc(N)[nH]c3=O)nc(N3CCOCC3)n2)ccn1 [Compound 451]
< 1,< 1000,,,Nc1ncc(-c2cc(Nc3ccc4c(c3)OCC(=O)N4)nc(N3CCOCC3)n2)cn1 [Compound 412]
